The source of these data is the supplement of paper PMC10307832.

One assay has as its system COR-L 105. The assay is described as follows: relative viability (nuclei count vs DMSO), 5 days (fraction); higher = more cells survive. The note with it: first compound 0.08 µM. Put shortly:
(§1)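 Relative viability is defined as nuclei in treated wells over nuclei in vehicle wells. Duplicate plates were run and medians reported. Lung cancer cell lines in 1536-well plates were dosed by pin tool one day after seeding, with one drug or with a fixed anchor-drug dose plus five library-drug doses (not always all listed) in √10 steps, and nuclei were counted after 5 days.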
`CCCCCCCCCCCC1=C(O)C(=O)C=C(O)C1=O` [Embelin] + Nc1ncn([C@H]2C[C@H](O)[C@@H](CO)O2)c(=O)n1 [Decitabine] (partner 2 µM) had a relative viability of 0.676.

Still in this assay, the particulars now being: first compound 0.8 µM.
With `CCCCCCCCCCCC1=C(O)C(=O)C=C(O)C1=O` [Embelin] + N=C(N)NC(=N)NCCc1ccccc1 [Phenformin] (partner 250 µM), the relative viability was 0.595.

For the compound `CCCCCCCCCCCC1=C(O)C(=O)C=C(O)C1=O` [Embelin] + O=C(c1cc(Cc2n[nH]c(=O)c3ccccc23)ccc1F)N1CCN(C(=O)C2CC2)CC1 [Olaparib] (partner 8 µM), the relative viability amounted to 0.611.

In turn, `CCCCCCCCCCCC1=C(O)C(=O)C=C(O)C1=O` [Embelin] + CC(=O)Nc1cccc(-n2c(=O)n(C3CC3)c(=O)c3c(Nc4ccc(I)cc4F)n(C)c(=O)c(C)c32)c1 [Trametinib] (partner 0.02 µM) displayed a relative viability of 0.458.

`CCCCCCCCCCCC1=C(O)C(=O)C=C(O)C1=O` [Embelin] + Nc1ncn([C@H]2C[C@H](O)[C@@H](CO)O2)c(=O)n1 [Decitabine] (partner 2 µM): the relative viability stood at 0.715.

The assay is the same for the next values; noted with them: first compound 2.53 µM.
With `CCCCCCCCCCCC1=C(O)C(=O)C=C(O)C1=O` [Embelin] + N=C(N)NC(=N)NCCc1ccccc1 [Phenformin] (partner 250 µM), the relative viability was determined as 0.446.

Take `CCCCCCCCCCCC1=C(O)C(=O)C=C(O)C1=O` [Embelin] + O=C(c1cc(Cc2n[nH]c(=O)c3ccccc23)ccc1F)N1CCN(C(=O)C2CC2)CC1 [Olaparib] (partner 8 µM): the relative viability was determined as 0.615.

Take `CCCCCCCCCCCC1=C(O)C(=O)C=C(O)C1=O` [Embelin] + CC(=O)Nc1cccc(-n2c(=O)n(C3CC3)c(=O)c3c(Nc4ccc(I)cc4F)n(C)c(=O)c(C)c32)c1 [Trametinib] (partner 0.02 µM): the relative viability came to 0.464.

`CCCCCCCCCCCC1=C(O)C(=O)C=C(O)C1=O` [Embelin] + Nc1ncn([C@H]2C[C@H](O)[C@@H](CO)O2)c(=O)n1 [Decitabine] (partner 2 µM) gave a relative viability of 0.657.

Still in this assay, the particulars now being: first compound 8 µM.
The compound `CCCCCCCCCCCC1=C(O)C(=O)C=C(O)C1=O` [Embelin] + N=C(N)NC(=N)NCCc1ccccc1 [Phenformin] (partner 250 µM) gave a relative viability of 0.496.

Take `CCCCCCCCCCCC1=C(O)C(=O)C=C(O)C1=O` [Embelin] + O=C(c1cc(Cc2n[nH]c(=O)c3ccccc23)ccc1F)N1CCN(C(=O)C2CC2)CC1 [Olaparib] (partner 8 µM): the relative viability was 0.573.

Turning to `CCCCCCCCCCCC1=C(O)C(=O)C=C(O)C1=O` [Embelin] + CC(=O)Nc1cccc(-n2c(=O)n(C3CC3)c(=O)c3c(Nc4ccc(I)cc4F)n(C)c(=O)c(C)c32)c1 [Trametinib] (partner 0.02 µM), the relative viability was determined as 0.445.

`CCCCCCCCCCCC1=C(O)C(=O)C=C(O)C1=O` [Embelin] + Nc1ncn([C@H]2C[C@H](O)[C@@H](CO)O2)c(=O)n1 [Decitabine] (partner 2 µM) registered a relative viability of 0.751.

The subject of the next assay is H3255. The assay is described as above. The note with it: first compound 0.08 µM. Put shortly: as §1
For `CCCCCCCCCCCC1=C(O)C(=O)C=C(O)C1=O` [Embelin] + N=C(N)NC(=N)NCCc1ccccc1 [Phenformin] (partner 250 µM), the relative viability came out at 0.374.

As to `CCCCCCCCCCCC1=C(O)C(=O)C=C(O)C1=O` [Embelin] + O=C(c1cc(Cc2n[nH]c(=O)c3ccccc23)ccc1F)N1CCN(C(=O)C2CC2)CC1 [Olaparib] (partner 8 µM), the relative viability worked out at 0.561.

`CCCCCCCCCCCC1=C(O)C(=O)C=C(O)C1=O` [Embelin] + CC(=O)Nc1cccc(-n2c(=O)n(C3CC3)c(=O)c3c(Nc4ccc(I)cc4F)n(C)c(=O)c(C)c32)c1 [Trametinib] (partner 0.02 µM) returned a relative viability of 0.601.

As for `CCCCCCCCCCCC1=C(O)C(=O)C=C(O)C1=O` [Embelin] + Nc1ncn([C@H]2C[C@H](O)[C@@H](CO)O2)c(=O)n1 [Decitabine] (partner 2 µM), the relative viability amounted to 0.502.

Turning to `CCCCCCCCCCCC1=C(O)C(=O)C=C(O)C1=O` [Embelin] + NC(=O)Nc1cc(-c2cccc(F)c2)sc1C(=O)N[C@H]1CCCNC1 [AZD7762] (partner 0.2 µM), the relative viability amounted to 0.826.

Staying with this assay, now noted: first compound 0.8 µM.
Take `CCCCCCCCCCCC1=C(O)C(=O)C=C(O)C1=O` [Embelin] + N=C(N)NC(=N)NCCc1ccccc1 [Phenformin] (partner 250 µM): the relative viability is 0.326.

In turn, `CCCCCCCCCCCC1=C(O)C(=O)C=C(O)C1=O` [Embelin] + O=C(c1cc(Cc2n[nH]c(=O)c3ccccc23)ccc1F)N1CCN(C(=O)C2CC2)CC1 [Olaparib] (partner 8 µM) returned a relative viability of 0.614.

In turn, `CCCCCCCCCCCC1=C(O)C(=O)C=C(O)C1=O` [Embelin] + CC(=O)Nc1cccc(-n2c(=O)n(C3CC3)c(=O)c3c(Nc4ccc(I)cc4F)n(C)c(=O)c(C)c32)c1 [Trametinib] (partner 0.02 µM) returned a relative viability of 0.764.

`CCCCCCCCCCCC1=C(O)C(=O)C=C(O)C1=O` [Embelin] + Nc1ncn([C@H]2C[C@H](O)[C@@H](CO)O2)c(=O)n1 [Decitabine] (partner 2 µM) displayed a relative viability of 0.783.

Compound `CCCCCCCCCCCC1=C(O)C(=O)C=C(O)C1=O` [Embelin] + NC(=O)Nc1cc(-c2cccc(F)c2)sc1C(=O)N[C@H]1CCCNC1 [AZD7762] (partner 0.2 µM) registered a relative viability of 0.975.

The assay is the same for the next values; noted with them: first compound 2.53 µM.
`CCCCCCCCCCCC1=C(O)C(=O)C=C(O)C1=O` [Embelin] + N=C(N)NC(=N)NCCc1ccccc1 [Phenformin] (partner 250 µM) showed a relative viability of 0.324.

In turn, `CCCCCCCCCCCC1=C(O)C(=O)C=C(O)C1=O` [Embelin] + O=C(c1cc(Cc2n[nH]c(=O)c3ccccc23)ccc1F)N1CCN(C(=O)C2CC2)CC1 [Olaparib] (partner 8 µM) displayed a relative viability of 0.59.

`CCCCCCCCCCCC1=C(O)C(=O)C=C(O)C1=O` [Embelin] + CC(=O)Nc1cccc(-n2c(=O)n(C3CC3)c(=O)c3c(Nc4ccc(I)cc4F)n(C)c(=O)c(C)c32)c1 [Trametinib] (partner 0.02 µM) showed a relative viability of 0.717.

As to `CCCCCCCCCCCC1=C(O)C(=O)C=C(O)C1=O` [Embelin] + Nc1ncn([C@H]2C[C@H](O)[C@@H](CO)O2)c(=O)n1 [Decitabine] (partner 2 µM), the relative viability was determined as 0.617.

In the case of `CCCCCCCCCCCC1=C(O)C(=O)C=C(O)C1=O` [Embelin] + NC(=O)Nc1cc(-c2cccc(F)c2)sc1C(=O)N[C@H]1CCCNC1 [AZD7762] (partner 0.2 µM), the relative viability was 0.894.

The same assay, now with this note: first compound 8 µM.
In turn, `CCCCCCCCCCCC1=C(O)C(=O)C=C(O)C1=O` [Embelin] + N=C(N)NC(=N)NCCc1ccccc1 [Phenformin] (partner 250 µM) displayed a relative viability of 0.362.
